Assay results as given in the Deep4Chem optical property database.
Blank lines part the entries; values can stand above or below the compound they belong to.

Experiment: solvent given as SMILES

absorption maximum (in C1CCOC1): 424 nm
absorption maximum (in CC#N): 424 nm
absorption maximum (in CCCCCCC): 418 nm
absorption maximum (in CS(C)=O): 435 nm
absorption maximum (in ClCCl): 427 nm
SMILES: CN(C)c1ccc(/C=C/c2cnc3ccccc3n2)cc1

SMILES: N#Cc1ccc(N)c2nonc12
absorption maximum (in C1COCCO1): 418 nm
absorption maximum (in CC#N): 421 nm
absorption maximum (in CCCCCC): 397 nm
absorption maximum (in CCO): 430 nm
absorption maximum (in Cc1ccccc1): 409 nm
absorption maximum (in ClCCl): 407 nm
absorption maximum (in O): 430 nm

absorption maximum (in ClC(Cl)Cl): 506 nm
SMILES: CC1=CC(C)=[N+]2C1=C(c1ccc(I)cc1)c1c(C)cc(C)n1[B-]2(Oc1ccc(Cl)cc1)Oc1ccc(Cl)cc1

absorption maximum (in ClCCl): 375 nm
SMILES: c1ccc(N(c2ccccc2)c2ccc(-c3ccc4c(c3)C3(c5ccccc5Sc5ccccc53)c3cc(-c5ccc(N(c6ccccc6)c6ccccc6)cc5)ccc3-4)cc2)cc1

absorption maximum (in ClC(Cl)Cl): 340 nm
SMILES: CC(=O)C1=C(O)CC2Oc3c(C(C)=O)c(O)c(C)c(O)c3C2(C)C1=O (configuration not stated)

absorption maximum (in CO): 568 nm
SMILES: CC1=CC(/C=C/c2ccc(OCCCN=[N+]=[N-])cc2)=[N+]2C1=C(c1ccc(N(C)C)cc1)c1c(C)cc(C)n1[B-]2(F)F

absorption maximum (in CC#N): 259 nm
SMILES: CC(C)(C)c1cc(C[n+]2ccc(-c3cc[n+](Cc4cc(C(C)(C)C)cc(C(C)(C)C)c4)cc3)cc2)cc(C(C)(C)C)c1

absorption maximum (in ClC(Cl)Cl): 562 nm
SMILES: F[B-]1(F)n2cccc2C(c2ccccc2)=C2C=CC(c3ccc(OC4=[N+]5C(=C(c6ccccc6)c6cc(Br)c(Br)n6[B-]5(F)F)C=C4Br)cc3)=[N+]21

SMILES: CCCCCCCCCCCCn1nnc(-c2ccc(C#Cc3ccc(C#Cc4ccc(-c5nnn(CCCCCCCCCCCC)n5)cc4)c4nc5c6ccccc6c6ccccc6c5nc34)cc2)n1
absorption maximum (in C1CCOC1): 428 nm
absorption maximum (in Cc1ccccc1): 428 nm
absorption maximum (in ClCCl): 428 nm

absorption maximum (in ClCCl): 337 nm
SMILES: CCOC(=O)c1c(-c2cc3ccc(OC)cc3oc2=O)nn(-c2cccc(C)c2)c1C(=O)OCC

absorption maximum (in ClC(Cl)Cl): 365 nm
SMILES: COc1ccc2c3ccc(OC)cc3c3cc4c(C)cc(=O)oc4cc3c2c1

absorption maximum (in ClC(Cl)Cl): 373 nm
SMILES: CCCCCCCCCCCCc1sc(CCCCCC)c2c3cc(CCCCCC)sc3c3sc(CCCCCC)cc3c12

absorption maximum (in ClCCl): 550 nm
SMILES: COc1ccccc1C1=[N+]2C(=Cc3c4c(c(-c5ccccc5OC)n3[B-]2(F)F)C2CCC4CC2)C2=C1C1CCC2CC1

absorption maximum (in ClCCl): 284 nm
SMILES: C(=C\c1nc2c(c(N3CCOCC3)n1)CCCC2)/c1ccccc1

SMILES: CC(C)[Si](C#Cc1c2ccccc2c(C#Cc2c3ccccc3c(C#Cc3c4ccccc4c(C#Cc4c5ccccc5c(C#Cc5c6ccccc6c(C#Cc6c7ccccc7c(C#C[Si](C(C)C)(C(C)C)C(C)C)c7ccccc67)c6ccccc56)c5ccccc45)c4ccccc34)c3ccccc23)c2ccccc12)(C(C)C)C(C)C
absorption maximum (in Cc1ccccc1): 589 nm

absorption maximum (in C1CCOC1): 670 nm
absorption maximum (in CS(C)=O): 675 nm
absorption maximum (in ClCCl): 670 nm
SMILES: COc1cc(OC)cc(C2=C3C(C)=C(I)C(/C=C/c4ccsc4)=[N+]3[B-](F)(F)n3c(/C=C/c4ccsc4)c(I)c(C)c32)c1

absorption maximum (in CC#N): 334 nm
absorption maximum (in CCOC(C)=O): 334 nm
absorption maximum (in CN(C)C=O): 342 nm
absorption maximum (in CS(C)=O): 344 nm
absorption maximum (in c1ccccc1): 332 nm
SMILES: CCOC(=O)CN(CC(=O)OCC)c1ccc(-c2cc(-c3ccncc3)nc(-c3ccncc3)c2)cc1

absorption maximum (in C1CCCCC1): 444 nm
SMILES: c1ccc(-c2cc3cccc4cc(-c5ccccc5)c5cc(-c6cc7[b-]8c(c6)c(-c6ccccc6)cc6cccc(cc7-c7ccccc7)[n+]86)cc2[b-]5[n+]34)cc1

SMILES: CCn1c2ccccc2c2cc(/C=C/c3cc(/C=C/c4ccc5c(c4)c4ccccc4n5CC)ncn3)ccc21
absorption maximum (in C1CCOC1): 397 nm
absorption maximum (in CCOC(C)=O): 395 nm
absorption maximum (in CN(C)C=O): 405 nm
absorption maximum (in Cc1ccccc1): 397 nm
absorption maximum (in ClCCl): 405 nm

absorption maximum (in ClCCl): 353 nm
SMILES: Cc1nnc(-c2cc(-n3c4ccccc4c4ccccc43)c(-n3c4ccccc4c4ccccc43)cc2-c2nnc(C)o2)o1

SMILES: CN(C)c1ccc(/C=C/C(=C(C#N)C#N)c2ccc3c4c(cccc24)CC3)cc1
absorption maximum (in C1CCOC1): 488 nm
absorption maximum (in CC#N): 494 nm
absorption maximum (in CC(C)=O): 492 nm
absorption maximum (in CCOC(C)=O): 497 nm
absorption maximum (in CN(C)C=O): 505 nm
absorption maximum (in CO): 496 nm
absorption maximum (in Cc1ccccc1): 487 nm
absorption maximum (in ClC(Cl)Cl): 483 nm

absorption maximum (in ClC(Cl)Cl): 445 nm
SMILES: c1csc(-c2ccc(-c3cccs3)c3nsnc23)c1

absorption maximum (in CCCCCCC): 383 nm
SMILES: c1ccc2c3c(ccc2c1)-c1cccc2c1c-3cc1ccccc12

absorption maximum (in CC#N): 444 nm
absorption maximum (in CCCCCC): 435 nm
absorption maximum (in CCO): 452 nm
absorption maximum (in CO): 452 nm
absorption maximum (in ClCCl): 449 nm
SMILES: CCCCCC(=O)c1c2c(c(C(=O)CCCCC)c3c1OC1(CCCC1)O3)OC1(CCCC1)O2

absorption maximum (in O): 438 nm
SMILES: CC[n+]1c(-c2ccccc2)c2cc(NC(=O)N[C@H]3C[C@@H]([NH3+])[C@H](O)[C@@H](O)[C@@H]3O)ccc2c2ccc(NC(=O)N[C@@H]3C[C@H]([NH3+])[C@@H](O)[C@@H](O)[C@H]3O)cc21

absorption maximum (in ClCCl): 352 nm
SMILES: c1csc(-c2ccc3c4ccc(-c5cccs5)cc4n(-c4cccs4)c3c2)c1

SMILES: COc1cc(C2=c3c(c4ccc(C(C)(C)C)cc4c4cc(C(C)(C)C)ccc34)=[N+]3C2=Nc2c(-c4cc(OC)c(OC)c(OC)c4)c4c5ccc(C(C)(C)C)cc5c5cc(C(C)(C)C)ccc5c4n2[B-]3(F)F)cc(OC)c1OC
absorption maximum (in Cc1ccccc1): 787 nm

SMILES: Cc1nc2c(c[n+]1C)CN1C(=O)N([C@H]3O[C@@H](CO)[C@H](O)[C@@H]3O)C=CC1=N2
absorption maximum (in CC#N): 390 nm
absorption maximum (in CC(C)=O): 391 nm
absorption maximum (in CCCCO): 390 nm
absorption maximum (in CCCO): 390 nm
absorption maximum (in CCO): 390 nm
absorption maximum (in CO): 390 nm
absorption maximum (in O): 384 nm
absorption maximum (in [2H]OC): 390 nm
absorption maximum (in [2H]OCC): 390 nm
absorption maximum (in [2H]O[2H]): 384 nm

SMILES: O=c1[nH]c2ccccc2[nH]1
absorption maximum (in C1CCOC1): 291 nm
absorption maximum (in CC#N): 281 nm
absorption maximum (in CC(C)=O): 285 nm
absorption maximum (in CCCCCCC): 292 nm
absorption maximum (in CCCCCl): 287 nm
absorption maximum (in CCCCO): 280 nm
absorption maximum (in CCCO): 280 nm
absorption maximum (in CCCOCCC): 280 nm
absorption maximum (in CCO): 280 nm

absorption maximum (in ClCCl): 479 nm
SMILES: COc1ccc2cc(/C=C/C3=C4CCc5ccccc5C4=[O+][B-](F)(F)O3)ccc2c1

absorption maximum (in C1COCCO1): 344 nm
absorption maximum (in CC#N): 347 nm
absorption maximum (in CO): 347 nm
absorption maximum (in ClCCl): 351 nm
SMILES: COC(=O)c1nc2c(N(C)C)nc(N(C)C)nc2n1Cc1ccccc1

absorption maximum (in ClC(Cl)Cl): 430 nm
SMILES: c1ccc(-c2nc(-c3ccc(N4CCCC4)cc3)cc(-c3ccc4ccccc4c3)n2)cc1

absorption maximum (in C1CCCCC1): 390 nm
SMILES: CCOC(=O)c1cc(C)n2nc(-c3ccccc3)ccc12

absorption maximum (in C1CCCCC1): 402 nm
absorption maximum (in CC#N): 404 nm
absorption maximum (in CO): 401 nm
absorption maximum (in ClCCl): 405 nm
SMILES: COc1c2ccccc2c(OC)c2c1c1ccc(C)cc1n2C

SMILES: CC1=[N+]2C(=C(c3c4ccccc4c(-c4ccccc4)c4ccccc34)c3ccc(C)n3[B-]2(F)F)C=C1
absorption maximum (in CC#N): 514 nm
absorption maximum (in CCCCCC): 516 nm
absorption maximum (in CCO): 516 nm
absorption maximum (in CN(C)C=O): 517 nm
absorption maximum (in Cc1ccccc1): 519 nm
absorption maximum (in ClCCl): 518 nm

absorption maximum (in CC#N): 350 nm
absorption maximum (in ClCCl): 370 nm
SMILES: CCCCCCCCCCCCc1ccc(-c2cc(C)[o+]c(C)c2)cc1

absorption maximum (in CC#N): 280 nm
absorption maximum (in CCOC(C)=O): 280 nm
absorption maximum (in CO): 280 nm
SMILES: COC(=O)C[C@H](NC(=O)[C@H](Cc1c[nH]c2ccccc12)NC(=O)OC(C)(C)C)C(=O)OC

absorption maximum (in ClCCl): 617 nm
SMILES: COc1ccccc1C1=[N+]2C(=C(c3ccccc3)c3c4ccccc4c(-c4ccccc4OC)n3[B-]2(F)F)c2ccccc21

absorption maximum (in ClC(Cl)Cl): 412 nm
SMILES: CCN(CC)c1ccc2cc(-c3ccc(-c4ccc5ccc6c(-c7ccc(-c8cc9ccc(N(CC)CC)cc9oc8=O)cc7)ccc7ccc4c5c76)cc3)c(=O)oc2c1

SMILES: Cc1ccc(N(c2ccc(C)cc2)c2ccc3c4cccc5c(N(c6ccc(C)cc6)c6ccc(C)cc6)ccc(c6cccc2c63)c54)cc1
absorption maximum (in C1CCCCC1): 506 nm
absorption maximum (in C1CCOC1): 502 nm
absorption maximum (in CC#N): 496 nm
absorption maximum (in Cc1ccccc1): 507 nm
absorption maximum (in ClCCl): 473 nm

SMILES: CC(C)(C)c1ccc2c(c1)c1cc(C(C)(C)C)cc3c1n2-c1cc(-c2ccc(F)cc2)cc2c1B3c1cc(C(C)(C)C)cc3c4cc(C(C)(C)C)ccc4n-2c13
absorption maximum (in Cc1ccccc1): 469.92 nm

absorption maximum (in ClCCl): 333 nm
SMILES: C[Si]1(C)C(c2ccccc2)=Cc2ccccc21

absorption maximum (in C1CCOC1): 489 nm
SMILES: FC(F)(F)c1ccc(C2=CC3=c4cc(-c5ccc(C(F)(F)F)cc5)c5nc(C(F)(F)C(F)(F)C(F)(F)F)nc6c(-c7ccc(C(F)(F)F)cc7)cc(c4c65)C4=CC(c5ccc(C(F)(F)F)cc5)=C5N=C(C(F)(F)C(F)(F)C(F)(F)F)N=C2C5C43)cc1 (configuration not stated)

absorption maximum (in CO): 430 nm
SMILES: C(=C\c1c[nH]cn1)/c1cc[n+]2ccc(/C=C/c3c[nH]cn3)cc2c1

absorption maximum (in C1CCCCC1): 305 nm
SMILES: COc1ccc(C2=C(c3ccc(OC)cc3)C(C)(C)c3cc(-c4ccccc4)ccc32)cc1

SMILES: CC(C)(C)c1ccc2c(c1)c1cc(C(C)(C)C)ccc1n2-c1ccc2c(c1)C(=O)c1ccc(-n3c4ccc(C(C)(C)C)cc4c4cc(C(C)(C)C)ccc43)cc1C2=O
absorption maximum (in Cc1ccccc1): 463 nm

absorption maximum (in C1CCOC1): 702 nm
absorption maximum (in CC#N): 694 nm
absorption maximum (in ClCCl): 703 nm
SMILES: CCC(CC)COC1=CC2=C3c4cc(OCC(CC)CC)c(-c5ccccc5)n4[B-](F)(F)[n+]4c3n(c3cc(C(C)(C)C)ccc34)[B-](F)(F)[N+]2=C1c1ccccc1

absorption maximum (in C1CCOC1): 513 nm
absorption maximum (in CN1CCCC1=O): 487 nm
absorption maximum (in CN(C)C=O): 495 nm
SMILES: O=C1c2ccc3c4c(Oc5ccccc5)cc5c6c(ccc(c7c(Oc8ccccc8)cc(c2c37)C(=O)N1c1ccc(O)cc1)c64)C(=O)N(c1ccc(O)cc1)C5=O

SMILES: CN(C)c1ccc(/C=C/c2ccc(C#N)cc2)cc1
absorption maximum (in C1CCOC1): 385 nm
absorption maximum (in CC#N): 383 nm
absorption maximum (in CCCC#N): 386 nm
absorption maximum (in CCCCCC): 378 nm
absorption maximum (in CCCCOCCCC): 380 nm
absorption maximum (in CCO): 383 nm
absorption maximum (in CCOCC): 380 nm
